From patent US9156790B2, “Anticancer P21-activated kinase inhibitors” (Ohio State Innovation Foundation, priority 2013, dated 2015)

Assays:
[1] = tested on: BCPAP cells; test: MTT cell viability assay, BCPAP; assay type: cell-based, Human; details: Homo sapiens, BCPAP, 72-hours of exposure, 1% FBS, mean±standard deviation (n=3), read-out: IC50 for reducing viability of BCPAP cells versus DMSO control
Description: (§1) Human thyroid cancer BCPAP, TPC1, and FTC133 cell lines were the generous gifts of Drs. Rebecca Schweppe and Bryan Haugen (University of Colorado Denver) (Schweppe et al., The Journal of clinical endocrinology and metabolism 83:4331-4341 (2008)) with permission from the following originating laboratories: BCPAP—Dr. Fabien, Centre Hospitalier Lyon-Sud, France (Fabien et al., Cancer 73:2206-2212 (1994)); TPC1—Dr. Sato, Kanazawa University, Japan (Tanaka et al., Virology 161:62-411 (1987)); and FTC133—Dr. Goretzki, University of Leipzig, Germany (Goretzki et al., Recent Results Cancer Res 118:48-63 (1990)). The obtained cell lines were confirmed for identity by DNA fingerprinting. BCPAP was grown in RPMI 1640 medium (Life Technologies Co., Carlsbad, Calif.) while FTC133 and TPC1 were grown in DMEM (Life Technologies Co.), both supplemented with 10% fetal bovine serum (FBS) and NEAA unless as noted for experiments.
(§2) The effect of OSU-03012 and its derivatives on cell viability was assessed by using the 3-(4,5-dimethylthiazol-2-yl)-2,5-diphenyl-2H-tetrazolium bromide (MTT) assay. Three replicates were performed in each individual experiment, and experiments were repeated at least three separate times. Cells were grown in 96-well plates for 24 hours and were exposed to various concentrations of drugs dissolved in DMSO (final concentration 0.1%) in RPMI 1640 or DMEM containing 1% FBS for 72 hours. 10 μL of 0.5 mg/ml MTT was added to each well and cells were incubated in CO2 at 37° C. for 2 hours. Supernatants were removed from the wells, the reduced MTT dye was solubilized in 100 μL of solution C (12 ml of 1N HCl in 300 mL of isopropanol), and absorbance at 570 nm was determined on a microplate reader.
(§3) We assessed the ability of the compounds to reduce cell viability in vitro by MTT assay after 72 hours of continuous exposure. Results are shown in Table 1 and are depicted as the IC50 vs. simultaneously performed DMSO control.
(§4) ^aThe reported IC50 values are concentrations at which BCPAP, FTC133 and TPC1 cell viability by MTT assays 50% of DMSO control after 72-hours of exposure. Data are presented as mean±standard deviation (n=3). PAK and PDK1 Selectivity In Vivo

[2] = tested on: FTC133 cells; test: MTT cell viability assay, FTC133; assay type: cell-based, Human; details: Homo sapiens, FTC-133, 72-hours of exposure, 1% FBS, mean±standard deviation (n=3), read-out: IC50 for reducing viability of FTC133 cells versus DMSO control
Description: as §1, §2, §3, §4

[3] = tested on: TPC1 cells; test: MTT cell viability assay, TPC1; assay type: cell-based, Human; details: Homo sapiens, TPC1, 72-hours of exposure, 1% FBS, mean±standard deviation (n=3), read-out: IC50 for reducing viability of TPC1 cells versus DMSO control
Description: as §1, §2, §3, §4

[4] = target: T1, Recombinant active PAK 1 (Homo sapiens, UniProt Q13153); test: In vitro PAK1 kinase assay (MBP substrate, 32P-ATP); assay type: biochemical
T1 construct: purchased Calbiochem
T1 sequence (Q13153 whole entry): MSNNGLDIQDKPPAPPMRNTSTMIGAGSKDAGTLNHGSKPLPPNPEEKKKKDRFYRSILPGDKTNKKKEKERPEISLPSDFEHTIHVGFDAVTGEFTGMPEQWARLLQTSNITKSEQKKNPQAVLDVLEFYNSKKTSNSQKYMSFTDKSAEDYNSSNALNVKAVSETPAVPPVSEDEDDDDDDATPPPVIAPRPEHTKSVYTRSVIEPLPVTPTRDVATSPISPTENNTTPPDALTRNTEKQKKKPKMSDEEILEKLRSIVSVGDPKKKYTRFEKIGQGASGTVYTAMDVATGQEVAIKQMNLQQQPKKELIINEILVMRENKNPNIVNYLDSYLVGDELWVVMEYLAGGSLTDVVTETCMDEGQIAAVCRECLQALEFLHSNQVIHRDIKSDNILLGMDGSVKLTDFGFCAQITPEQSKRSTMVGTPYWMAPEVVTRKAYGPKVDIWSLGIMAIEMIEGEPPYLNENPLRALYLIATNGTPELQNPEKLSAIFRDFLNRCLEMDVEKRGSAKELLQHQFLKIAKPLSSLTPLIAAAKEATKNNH
Description: Recombinant active PAK 1 (Calbiochem) was incubated with selected derivatives or 0.1% DMSO in the presence or absence of MBP (Sigma) in a 1× kinase buffer (Cell Signaling). The addition of [γ-32P]-ATP (2.5 μCi/reaction) (Perkin Elmer) started the reaction, which was incubated at 30° C. for 30 minutes. The reaction was terminated by the addition of EDTA. Results were obtained after visualization of ^32P-labeled MBP after separation on 12% polyacrylamide gels and autoradiography. For the Lineweaver-Burk plot analysis, the ratio of radioactive ATP to nonradioactive ATP was not altered. The PAK1 kinase activities are the means of three independent experiments quantified using P81 phosphocellulose paper by a scintillation counter after three washes with 0.75% phosphoric acid.
Screening of OSU-03012 Derivatives to Identify PAK1 Inhibitors. The 17 derivatives along with OSU-03012, each at 7.5 μM, were screened for their ability to inhibit PAK1 activity by in vitro PAK1 kinase assay. The dose was chosen (above the IC50 of OSU-03012) to allow OSU-03012 to serve as a robust positive control. The PAK1 kinase assay was performed using recombinant active PAK1 with myelin basic protein as substrate in the presence of 2.5 μM ATP and 7.5 μM of respective inhibitors.
To further investigate these six compounds, dose-response studies on PAK1 activity were performed by using PAK1 kinase assay. […] We next questioned whether compounds 4 or 15 inhibited PAK1 in an ATP competitive manner as their parent compound OSU-03012.

[5] = tested on: PAK phosphorylation of Vimentin (Ser56); test: Western blot, PAK phosphorylation of Vimentin (Ser56) in thyroid cancer cells; assay type: cell-based, Human; details: 7.5 μM, 6 h, BCPAP, FTC133 and TPC1 cells (FIG. 3)
Description: (§5) Protein isolation and Western blot were performed as previously described. Ringel et al., Cancer research 61:6105-6111 (2001). 25 μg of total cell lysates were loaded into 4-12% SDS-PAGE, electrophoresed, and transferred to nitrocellulose membranes for immunoblotting. Primary antibodies against Akt (#9272), phospho-Akt (Thr308) (#2965), p44/42 MAPK (Erk1/2) (#9107), phospho-p44/42 MAPK (Erk1/2) (Thr202/Tyr204) (#4377) and GAPDH (#2118) were obtained from Cell Signaling Technology (Danvers, Mass., USA). Antibody against Vimentin (V6630) and phospho-Ser55 Vimentin were from Sigma-Aldrich, Inc. (St. Louis, Mo.) and MBL Co. (Nagoya, Japan), respectively. Antibodies against total and phosphorylated S6 were from Cell Signaling Technology®.
(§6) The ability of the compounds with in vitro anti-PAK1 activity was assessed for activity […] in thyroid cancer cells. In addition, because the compounds are based on the structure of a PDK1 inhibitor, PDK1 inhibitory activity was also assessed. Inhibitory activity in cells was estimated using Western blot with primary antibodies directed against kinase-specific phosphorylation sites; serine 56 of vimentin for PAK and threonine 308 of Akt for PDK1. BCPAP, TPC1, and FTC133 thyroid cancer cells were utilized. BCPAP and TPC1 are derived from PTC and have BRAF V600E and RET/PTC1 rearrangements, respectively. FTC133 is derived from a follicular thyroid cancer with an inactivating mutation of PTEN. Similar to the kinase screening assay, cells were treated with the six compounds or OSU-03012 at 7.5 μM concentration or with DMSO vehicle alone. The results were not entirely consistent across the three cell lines presumably related to mutation status or other factors. OSU-03012 inhibited both PDK1 and PAK-mediated phosphorylation of targets as predicted.
(§7) The dose-dependency of compounds 4 and 15 was next assessed (FIG. 4). […] Due to the important role that ERK activation plays in thyroid cancer, and its signaling activation by thyroid oncogenes, the effects of the compounds on ERK phosphorylation was also assessed.

[6] = tested on: PDK1 phosphorylation of Akt (Thr308); test: Western blot, PDK1 phosphorylation of Akt (Thr308) in thyroid cancer cells; assay type: cell-based, Human; details: 7.5 μM, 6 h, BCPAP, FTC133 and TPC1 cells (FIG. 3)
Description: as §5, §6, §7

[7] = target: PAK (Homo sapiens, UniProt Q13153); details: Porchia et al., Mol Pharmacol 72:1124-1131 (2007); cited from earlier work
PAK, sequence (Q13153 whole entry): as above

| SMILES | IC50 [1] [µM] | IC50 [2] [µM] | IC50 [3] [µM] | Inhibition of PAK1 kinase activity in initial screen ([4]; 7.5 μM inhibitor, 2.5 μM ATP, myelin basic protein substrate (FIG. 2A)) | Relative PAK1 inhibitory potency (comparison in words) ([4]; in vitro kinase assay, comparison between compounds / with OSU-03012) | PAK phosphorylation of vimentin (Western blot) [5] | PDK1 phosphorylation of Akt (Thr308) (Western blot) [6] | IC50 ([4]; in vitro kinase assay, read-out: IC50 versus PAK, in vitro (bound implied by chosen test concentration)) [µM] | PAK inhibitory activity (previously reported) [7] |
| --- | --- | --- | --- | --- | --- | --- | --- | --- | --- |
| NCCC(=O)Nc1ccc(-n2nc(CO)cc2-c2ccc3ccc4ccccc4c3c2)cc1 [Compound 11, 3-Amino-N-(4-(3-(hydroxymethyl)-5-(phenanthren-3-yl)-1H-pyrazol-1-yl)phenyl)-propanamide] | 4.5 ± 1.04 | 3.94 ± 2.29 | 4.98 ± 1.94 | inhibited PAK1 kinase activity | more potent | did not significantly alter PAK phosphorylation of vimentin | markedly inhibit PDK1 phosphorylation of Akt | – | – |
| NCC(=O)Nc1ccc(-n2nc(C(F)(F)F)cc2-c2ccc3c(ccc4ccccc43)c2)cc1 [OSU-03012, reference compound] | 2.93 ± 1.05 | 2.93 ± 1.87 | 2.8 ± 1.33 | – | – | inhibited | inhibited | < 7.5 | low micromolar concentrations |
